Structures are written as SMILES. Where only a bound is given, the exact number is not on record here.

These results are taken from patent publication US8859616B2, “Compounds and methods for enhancing hair growth” (Allergan, Inc., priority 2011, dated 2014).

Holding throughout (test): Prostanoid receptor functional activity measured by FLIPR
Common to all, as to assay type: cell-based
Holding throughout (conditions): n = 6 (#1), n = 3 (#2)

In one test the target is hIP (Homo sapiens, UniProt P43119). How it is done: (§1) The above compounds are evaluated for their selectivity for various prostaglandin (PG) receptors. […] Thus, the method of the present invention may be carried out with EP3 and EP4 receptor agonists and/or prodrugs of EP3 and EP4 receptor agonists.
In another test the target is T1, hDP (Homo sapiens, UniProt Q13258).
T1 sequence (Q13258 1-359): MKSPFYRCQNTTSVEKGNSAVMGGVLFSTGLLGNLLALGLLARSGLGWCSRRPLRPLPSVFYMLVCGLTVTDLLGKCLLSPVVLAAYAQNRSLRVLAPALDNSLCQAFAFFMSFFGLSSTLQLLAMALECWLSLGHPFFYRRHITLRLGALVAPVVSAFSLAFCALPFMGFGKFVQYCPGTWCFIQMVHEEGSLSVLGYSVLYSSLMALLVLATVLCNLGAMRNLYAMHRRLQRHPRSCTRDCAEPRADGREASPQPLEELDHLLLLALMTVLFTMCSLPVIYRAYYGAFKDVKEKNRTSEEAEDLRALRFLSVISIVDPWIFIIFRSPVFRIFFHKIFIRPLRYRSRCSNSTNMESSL
How it is done:
as §1

In a further test the target is T2, hEP1 (Homo sapiens, UniProt P34995).
T2 sequence (P34995 1-402): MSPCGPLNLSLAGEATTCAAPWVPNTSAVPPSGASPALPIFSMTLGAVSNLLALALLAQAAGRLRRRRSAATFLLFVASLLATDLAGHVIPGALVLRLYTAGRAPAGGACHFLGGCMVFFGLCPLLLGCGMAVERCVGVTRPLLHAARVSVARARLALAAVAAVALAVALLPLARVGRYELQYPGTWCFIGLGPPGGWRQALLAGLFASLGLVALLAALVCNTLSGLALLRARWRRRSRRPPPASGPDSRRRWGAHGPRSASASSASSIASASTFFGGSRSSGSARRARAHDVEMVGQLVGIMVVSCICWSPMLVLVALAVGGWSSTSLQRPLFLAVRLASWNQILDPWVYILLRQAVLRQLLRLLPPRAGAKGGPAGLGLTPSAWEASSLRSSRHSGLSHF
How it is done: as §1

Another test has as its target hEP4 (Homo sapiens, UniProt P35408). How it is done:
as §1

In a further test the target is hEP2 (Homo sapiens, UniProt P43116). How it is done:
as §1

Another test deals with T3, hEP3 (Homo sapiens, UniProt P43115).
T3 sequence (P43115 1-390): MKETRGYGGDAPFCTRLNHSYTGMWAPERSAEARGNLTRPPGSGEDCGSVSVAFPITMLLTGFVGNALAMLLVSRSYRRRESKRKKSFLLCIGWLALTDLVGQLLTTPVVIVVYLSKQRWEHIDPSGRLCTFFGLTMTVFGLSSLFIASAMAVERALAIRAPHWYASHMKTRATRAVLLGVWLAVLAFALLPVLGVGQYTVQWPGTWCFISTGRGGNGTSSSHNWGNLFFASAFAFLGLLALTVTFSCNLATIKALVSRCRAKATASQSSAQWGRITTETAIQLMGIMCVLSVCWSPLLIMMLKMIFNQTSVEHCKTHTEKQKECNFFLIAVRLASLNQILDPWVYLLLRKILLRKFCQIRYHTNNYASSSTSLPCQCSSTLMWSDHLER
How it is done: as §1

For the next test, the target named is T4, hTP (Homo sapiens, UniProt P21731).
T4 sequence (P21731 1-343): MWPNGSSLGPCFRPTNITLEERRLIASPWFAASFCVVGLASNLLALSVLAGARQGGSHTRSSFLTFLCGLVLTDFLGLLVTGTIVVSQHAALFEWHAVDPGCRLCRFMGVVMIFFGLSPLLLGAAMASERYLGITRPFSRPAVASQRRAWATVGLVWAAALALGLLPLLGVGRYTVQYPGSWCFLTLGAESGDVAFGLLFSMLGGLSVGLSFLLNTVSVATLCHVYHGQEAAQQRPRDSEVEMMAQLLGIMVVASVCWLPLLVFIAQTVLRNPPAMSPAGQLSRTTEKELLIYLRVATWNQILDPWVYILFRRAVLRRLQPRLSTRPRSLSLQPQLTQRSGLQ
How it is done:
as §1

Another test deals with hFP (Homo sapiens, UniProt P43088). How it is done:
as §1

Sequence of hEP2 (P43116 whole entry): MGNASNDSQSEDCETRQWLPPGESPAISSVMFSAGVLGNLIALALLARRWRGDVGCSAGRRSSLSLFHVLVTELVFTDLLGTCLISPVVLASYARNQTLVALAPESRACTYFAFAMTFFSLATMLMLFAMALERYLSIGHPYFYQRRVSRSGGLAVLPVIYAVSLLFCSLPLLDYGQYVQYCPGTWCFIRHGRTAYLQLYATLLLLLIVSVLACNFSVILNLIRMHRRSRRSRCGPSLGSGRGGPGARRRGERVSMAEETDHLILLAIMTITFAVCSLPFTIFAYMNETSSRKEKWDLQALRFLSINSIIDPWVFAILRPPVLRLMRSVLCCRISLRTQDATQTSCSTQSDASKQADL
Sequence of hIP (P43119 whole entry): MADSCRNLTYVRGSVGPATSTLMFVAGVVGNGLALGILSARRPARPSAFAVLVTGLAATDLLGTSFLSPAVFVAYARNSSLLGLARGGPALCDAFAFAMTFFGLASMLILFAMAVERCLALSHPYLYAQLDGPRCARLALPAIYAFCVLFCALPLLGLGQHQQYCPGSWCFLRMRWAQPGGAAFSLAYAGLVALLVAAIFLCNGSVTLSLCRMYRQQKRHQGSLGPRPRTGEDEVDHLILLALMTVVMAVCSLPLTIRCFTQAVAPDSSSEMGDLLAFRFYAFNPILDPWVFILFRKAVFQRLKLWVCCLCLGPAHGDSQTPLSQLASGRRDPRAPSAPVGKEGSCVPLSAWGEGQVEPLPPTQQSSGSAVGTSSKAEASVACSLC
Sequence of hFP (P43088 whole entry): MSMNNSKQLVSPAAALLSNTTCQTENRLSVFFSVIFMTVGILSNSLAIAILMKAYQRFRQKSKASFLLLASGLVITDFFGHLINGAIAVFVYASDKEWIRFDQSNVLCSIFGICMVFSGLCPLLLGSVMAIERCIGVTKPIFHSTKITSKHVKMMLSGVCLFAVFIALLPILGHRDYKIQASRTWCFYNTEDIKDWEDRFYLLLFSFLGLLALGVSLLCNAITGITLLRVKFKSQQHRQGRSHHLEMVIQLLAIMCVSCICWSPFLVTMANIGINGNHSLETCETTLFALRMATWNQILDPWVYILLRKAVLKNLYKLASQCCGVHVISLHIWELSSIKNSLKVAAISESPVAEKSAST
Sequence of hEP4 (P35408 whole entry): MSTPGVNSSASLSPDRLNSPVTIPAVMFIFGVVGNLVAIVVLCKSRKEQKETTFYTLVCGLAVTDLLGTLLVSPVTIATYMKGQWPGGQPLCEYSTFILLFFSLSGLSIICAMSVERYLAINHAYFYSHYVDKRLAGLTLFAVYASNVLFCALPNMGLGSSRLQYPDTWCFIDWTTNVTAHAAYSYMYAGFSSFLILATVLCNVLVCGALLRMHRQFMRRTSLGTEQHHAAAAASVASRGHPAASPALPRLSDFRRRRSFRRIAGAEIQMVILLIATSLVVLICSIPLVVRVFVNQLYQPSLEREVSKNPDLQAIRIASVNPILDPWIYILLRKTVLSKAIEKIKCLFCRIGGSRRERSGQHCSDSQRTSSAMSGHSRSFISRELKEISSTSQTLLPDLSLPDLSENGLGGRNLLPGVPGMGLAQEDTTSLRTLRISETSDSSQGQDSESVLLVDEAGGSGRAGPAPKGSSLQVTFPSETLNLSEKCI

Consider `CCCCC[C@H](O)/C=C/[C@H]1[C@H](O)CC(=O)[C@@H]1SCCCSCC(=O)O` [#1, {3-[(1R,2S,3R)-3-Hydroxy-2-((S)-(E)-3-hydroxyoct-1-enyl)-5-oxocyclopentyl-sulfanyl]propylsulfanyl}acetic acid], for which the EC50 (in general, the concentration needed to bring the measured effect to its halfway point) on hIP was over 10000 nM; at hDP, over 10000 nM; on hEP1 it was 304 nM; at hEP4, 0.26 nM; on hEP2, 380 nM; on hEP3 it was 36 nM. In addition, the EC50 is 561 nM on hTP and over 10000 nM at hFP.
`CCCCC[C@H](O)/C=C/[C@H]1[C@H](O)CC(=O)[C@@H]1SCCCSCC(=O)OC(C)C` [#2, {3-[(1R,2S,3R)-3-Hydroxy-2-((S)-(E)-3-hydroxyoct-1-enyl)-5-oxocyclopentyl-sulfanyl]propylsulfanyl}acetic acid isopropyl ester]: the half-maximal effective concentration (EC50) is over 10000 nM at hIP; over 10000 nM at hDP; 2260 nM on hEP1; 2.55 nM on hEP4; 1110 nM at hEP2; 44 nM on hEP3. Further, the EC50 was 3290 nM at hTP and over 10000 nM on hFP.
